Assay results: US20100152434A1, “Protein Kinase-binding Nucleosides and Associated Methods” (priority 2007, published 2010)
Where two headings read alike, the source gives them in different places.

Experiments:
[1] = system: MCF7; experiment: cells; conditions: Homo sapiens, MCF7, 48 h
[2] = system: BT-549
[3] = system: MDA-MB-435; experiment: cells; conditions: Homo sapiens, MDA-MB-435, 48 h
[4] = system: 60 different human tumor cell lines (the NCI 60); experiment: cells; conditions: read-out: LC50 value for each cell line
[5] = system: TK-10
[6] = system: CCRF-CEM; experiment: cells; conditions: Homo sapiens, 48 h
[7] = system: OVCAR-3; experiment: cells; conditions: Homo sapiens, OVCAR-3, 48 h
[8] = system: RXF 393; experiment: cells; conditions: Homo sapiens, RXF 393, 48 h
[9] = system: MDA-MB-231/ATCC; experiment: cells; conditions: Homo sapiens, MDA-MB-231, 48 h
[10] = system: KM12; experiment: cells; conditions: Homo sapiens, KM12, 48 h
[11] = system: MDA-MB-231/ATCC
[12] = system: KM12
[13] = system: U251; experiment: cells; conditions: Homo sapiens, U-251, 48 h
[14] = system: TK-10; experiment: cells; conditions: Homo sapiens, TK-10, 48 h
[15] = system: SK-MEL-2
[16] = system: IGROV1; experiment: cells; conditions: Homo sapiens, IGROV-1, 48 h
[17] = system: HOP-92
[18] = system: OVCAR-5
[19] = system: DU-145
[20] = system: CCRF-CEM
[21] = system: UACC-257
[22] = system: HOP-62; conditions: HOP-62
[23] = system: PC-3
[24] = system: MDA-MB-435; conditions: MDA-MB-435
[25] = Log10 Concentration −4.0, Molar
[26] = Log10 Concentration −5.0, Molar
[27] = Log10 Concentration −6.0, Molar
[28] = Log10 Concentration −7.0, Molar
[29] = Log10 Concentration −8.0, Molar

Q: For `CCOC(=O)C[C@@H]1C(O[Si](C)(C)C(C)(C)C)[C@H](n2cnc3c(NC(=O)Nc4ccccc4)ncnc32)O[C@@H]1CNC(=O)NC` (some centres unmarked) [Compound 10], which GI50 [1] is on record?
A: 3.42 µM

Q: And the CC50 ([1]; read-out: LC50)?
A: > 100 µM

Q: And the TGI ([2]; 48 h)?
A: >1.00E−4 Molar

Q: What about the “Percent Growth” value [2, 25] of the same compound?
A: 51%

Q: And the “Percent Growth” value [2, 26]?
A: 67%

Q: And the “Percent Growth” value [2, 27]?
A: 110%

Q: And the “Percent Growth” value [2, 28]?
A: 109%

Q: And the “Percent Growth” value [2, 29]?
A: 104%

Q: And the GI50 [3]?
A: 6.21 µM

Q: And the CC50 ([3]; read-out: LC50)?
A: > 100 µM

Q: What about the CC50 [4] of the same compound?
A: > 100 µM

Q: What about the TGI ([5]; 48 h) of the same compound?
A: 4.05E−5 Molar

Q: What about the “Percent Growth” value [5, 25] of the same compound?
A: −38%

Q: And the “Percent Growth” value [5, 26]?
A: 59%

Q: And the “Percent Growth” value [5, 27]?
A: 105%

Q: And the “Percent Growth” value [5, 28]?
A: 103%

Q: What about the “Percent Growth” value [5, 29] of the same compound?
A: 98%

Q: What about the GI50 [6] of the same compound?
A: 6.69 µM

Q: What about the CC50 ([6]; read-out: LC50) of the same compound?
A: > 100 µM

Q: What about the GI50 [7] of the same compound?
A: 4.59 µM

Q: What about the CC50 ([7]; read-out: LC50) of the same compound?
A: 91.3 µM

Q: And the GI50 [8]?
A: 2.01 µM

Q: What about the CC50 ([8]; read-out: LC50) of the same compound?
A: 19.5 µM

Q: What about the GI50 [9] of the same compound?
A: 3.96 µM

Q: And the CC50 ([9]; read-out: LC50)?
A: > 100 µM

Q: What about the GI50 [10] of the same compound?
A: 3.95 µM

Q: And the CC50 ([10]; read-out: LC50)?
A: > 100 µM

Q: What about the TGI ([11]; 48 h) of the same compound?
A: 4.13E−5 Molar

Q: And the “Percent Growth” value [11, 25]?
A: −13%

Q: And the “Percent Growth” value [11, 26]?
A: 20%

Q: What about the “Percent Growth” value [11, 27] of the same compound?
A: 94%

Q: And the “Percent Growth” value [11, 28]?
A: 103%

Q: What about the “Percent Growth” value [11, 29] of the same compound?
A: 101%

Q: And the TGI ([12]; 48 h)?
A: 2.09E−5 Molar

Q: And the “Percent Growth” value [12, 25]?
A: −28%

Q: And the “Percent Growth” value [12, 26]?
A: 13%

Q: And the “Percent Growth” value [12, 27]?
A: 105%

Q: And the “Percent Growth” value [12, 28]?
A: 112%

Q: And the “Percent Growth” value [12, 29]?
A: 107%

Q: What about the GI50 [13] of the same compound?
A: 4.69 µM

Q: And the CC50 ([13]; read-out: LC50)?
A: 76 µM

Q: What about the GI50 [14] of the same compound?
A: 12.4 µM

Q: What about the CC50 ([14]; read-out: LC50) of the same compound?
A: > 100 µM

Q: What about the TGI ([15]; 48 h) of the same compound?
A: 3.31E−5 Molar

Q: What about the “Percent Growth” value [15, 25] of the same compound?
A: −30%

Q: And the “Percent Growth” value [15, 26]?
A: 32%

Q: What about the “Percent Growth” value [15, 27] of the same compound?
A: 99%

Q: And the “Percent Growth” value [15, 28]?
A: 94%

Q: What about the “Percent Growth” value [15, 29] of the same compound?
A: 102%

Q: And the GI50 [16]?
A: 3.85 µM

Q: And the CC50 ([16]; read-out: LC50)?
A: 79.2 µM

Q: And the “Percent Growth” value [17, 25]?
A: −61%

Q: What about the “Percent Growth” value [17, 26] of the same compound?
A: −32%

Q: And the “Percent Growth” value [17, 27]?
A: 12%

Q: What about the “Percent Growth” value [17, 28] of the same compound?
A: −1%

Q: What about the “Percent Growth” value [17, 29] of the same compound?
A: 4%

Q: What about the TGI ([18]; 48 h) of the same compound?
A: >1.00E−4 Molar

Q: And the “Percent Growth” value [18, 25]?
A: 27%

Q: And the “Percent Growth” value [18, 26]?
A: 72%

Q: What about the “Percent Growth” value [18, 27] of the same compound?
A: 95%

Q: And the “Percent Growth” value [18, 28]?
A: 103%

Q: And the “Percent Growth” value [18, 29]?
A: 104%

Q: And the TGI ([19]; 48 h)?
A: 1.94E−5 Molar

Q: What about the “Percent Growth” value [19, 25] of the same compound?
A: −59%

Q: What about the “Percent Growth” value [19, 26] of the same compound?
A: 24%

Q: And the “Percent Growth” value [19, 27]?
A: 110%

Q: What about the “Percent Growth” value [19, 28] of the same compound?
A: 123%

Q: And the “Percent Growth” value [19, 29]?
A: 110%

Q: What about the TGI ([20]; 48 h) of the same compound?
A: 8.86E−5 Molar

Q: What about the “Percent Growth” value [20, 25] of the same compound?
A: −2%

Q: And the “Percent Growth” value [20, 26]?
A: 41%

Q: What about the “Percent Growth” value [20, 27] of the same compound?
A: 92%

Q: What about the “Percent Growth” value [20, 28] of the same compound?
A: 100%

Q: What about the “Percent Growth” value [20, 29] of the same compound?
A: 96%

Q: And the TGI ([21]; 48 h)?
A: >1.00E−4 Molar

Q: What about the “Percent Growth” value [21, 25] of the same compound?
A: 9%

Q: What about the “Percent Growth” value [21, 26] of the same compound?
A: 34%

Q: And the “Percent Growth” value [21, 27]?
A: 99%

Q: And the “Percent Growth” value [21, 28]?
A: 102%

Q: What about the “Percent Growth” value [21, 29] of the same compound?
A: 102%

Q: And the TGI ([22]; 48 h)?
A: 2.64E−5 Molar

Q: And the “Percent Growth” value [22, 25]?
A: −65%

Q: And the “Percent Growth” value [22, 26]?
A: 48%

Q: And the “Percent Growth” value [22, 27]?
A: 97%

Q: What about the “Percent Growth” value [22, 28] of the same compound?
A: 92%

Q: And the “Percent Growth” value [22, 29]?
A: 99%

Q: And the TGI ([23]; 48 h)?
A: 4.85E−6 Molar

Q: And the “Percent Growth” value [23, 25]?
A: −77%

Q: What about the “Percent Growth” value [23, 26] of the same compound?
A: −47%

Q: And the “Percent Growth” value [23, 27]?
A: 103%

Q: And the “Percent Growth” value [23, 28]?
A: 126%

Q: And the “Percent Growth” value [23, 29]?
A: 121%

Q: And the TGI ([24]; 48 h)?
A: >1.00E−4 Molar

Q: And the “Percent Growth” value [24, 25]?
A: 8%

Q: What about the “Percent Growth” value [24, 26] of the same compound?
A: 40%

Q: What about the “Percent Growth” value [24, 27] of the same compound?
A: 89%

Q: And the “Percent Growth” value [24, 28]?
A: 92%

Q: And the “Percent Growth” value [24, 29]?
A: 95%
